Data set [1] relates to gastric acid output. The experiment in a line: Gastric antisecretory activity in the gastric fistula dog (histamine-induced gastric acid output). Type of data set: in vivo, dog (beagle). To be noted: for ED50: Canis lupus familiaris, read-out: ED50 (acid output); for Potency Ratio: relative to cimetidine. The protocol:
Thomas type [Thomas, J. E., Proc. Soc. exp. Biol. Med., 46, 260 (1941)] stainless steel cannulae are inserted into the stomachs of beagle dogs (10-12 kg.) just orad to the pyloric gland area near the greater curvature to provide a chronic gastric fistula. Animals are allowed to recover for at least two months before any testing is done. Dogs are fasted overnight (~18 hours) with water ad lib prior to each experiment. The dogs are placed in a sling and an eight inch inside needle catheter (C. R. Baird, Inc.) with a two inch 17 gauge needle is inserted into a leg vein for purposes of drug administration. Gastric secretions are collected every 15 minutes by gravity drainage from the opened cannula. […] A modification of the procedure described by Grossman and Konturek, Gastroenterology, 66, 517 (1974) was followed. […] Each 15 minute sample of gastric juice is measured to the nearest 0.5 ml. and titratable acidity against 0.02 N NaOH (endpoint pH 7.0) is measured with an Autoburet and pH meter (radiometer).The percent inhibition of acid output is calculated as described in the pylorus ligated rat procedure.

Data set [2] concerns the target T1, histamine H2-receptors (Cavia porcellus, UniProt P47747).
T1 construct: The spontaneously beating right atrium was dissected free from other tissues; from tissue; host or cells: isolated spontaneously beating right atrium, male Hartley guinea pig
The experiment in a line: Histamine H2-receptor antagonism, isolated guinea pig right atria assay. Details: species or system guinea pig (male Hartley strain). To be noted: for Histamine ED50 after test compound / Concentration-Response Curve Displacement Factor: test compound 3 × 10^-5 M; for Histamine ED50 after test compound: 30 minute incubation; for Concentration-Response Curve Displacement Factor: shift of histamine curve to the right. The protocol:
Subsequent investigations by Hughes and Coret, Proc. Soc. […] Black et al., Agents and Actions, 3, 133 (1973) and Brimblecombe et al., Fed. […] The present comparative studies were carried out using a modification of the procedure reported by Reinhardt et al., Agents and Actions, 4, 217 (1974).
Male Hartley strain guinea pigs (350-450 gm.) were sacrificed by a blow on the head. The heart was excised and placed in a Petri dish of oxygenated (95% O2, 5% CO2) modified Krebs solution (g./liter: NaCl 6.6, KCl 0.35, MgSO4.7 H2 O 0.295, KH2 PO4 0.162, CaCl2 0.238, NaHCO3 2.1 and dextrose 2.09). The spontaneously beating right atrium was dissected free from other tissues and a silk thread (4-O) attached to each end. The atrium was suspended in a 20 ml. muscle chamber containing oxygenated modified Krebs solution maintained at 32° C. Atrial contractions were recorded isometrically by means of a Grass FT 0.03 force displacement transducer and recordings of contractile force and rate were made with a Beckman RP Dynograph.
A resting tension of 1 g. was applied to the atrium and it was allowed to equilibrate for 1 hour.
Concentration-response curve displacement factors were calculated as follows: [formula] […] [formula]

The test system of data set [3] is gastric acid output. Nature of the data set: Gastric antisecretory activity in the two hour pylorus ligated (Shay) rat. The class given is in vivo, rat (male Long Evans). Conditions: for ED50: 2 h, read-out: ED50 (acid output); for Potency Ratio: relative to cimetidine. The source says: The pyloric ligation procedure in the rat was designed by Shay et al., Gastroenterology, 5, 53 (1945) for the study of perforating gastric ulcers; however, as the method became known, it was also employed as a means of studying rat gastric secretion, Shay et al., Gastroenterology, 26, 906 (1954), Brodie, D. A., Am. J. Dig. Dis., 11, 231 (1966). A modification of this procedure is presently used to evaluate compounds for gastric antisecretory activity.
Male Long Evans rats, 280-300 gm., are used. The animals are placed in individual cages and fasted for 24 hours with free access to water. Under ether anesthesia, the stomach is reached through a midline incision, and a cotton-thread ligature is placed around the pylorus. […] All compounds are solubilized with one equivalent of HCl and brought to the proper volume with water. The animals are returned to their cages from which the water bottles have been removed and two hours later are sacrificed with ether. The stomach is removed and the two hour gastric collection is drained into a graduated test tube for volume determination. Titratable acidity is measured by titrating a one ml. sample to pH 7.0 with 0.02 N NaOH, using an Autoburet and an electrometric pH meter (Radiometer). Titratable acid output is calculated in microequivalents by multiplying the volume in milliliters by the acid concentration in milliequivalents per liter. The percent inhibition of acid output is calculated as follows: [formula]

For data set [4] the following is noted: cited from earlier work.
Data set [5] has as its system gastric secretion. Conditions: animals and man; cited from earlier work.
The target of data set [6] is T1, histamine H2-receptors. Conditions: Black et al., isolated guinea pig right atria; cited from earlier work.
Data set [7] deals with peptic ulcer disease. Conditions: clinical evaluation, Gray et al.; cited from earlier work.
Data set [8] relates to H2 receptors. Conditions: cited from earlier work.
Data set [9] deals with agranulocytosis. To be noted: in vivo; cited from earlier work.
[10] abbreviates: iv, histamine-stimulated gastric fistula dog.
Setting [11] is: compared with cimetidine and Compound XII.
Setting [12] is: ip, two hour pylorus ligated rat.
Setting [13] is: 1.50 μMole/kg iv (BL-5949: one dog at this dose).

T1 sequence (P47747 whole entry): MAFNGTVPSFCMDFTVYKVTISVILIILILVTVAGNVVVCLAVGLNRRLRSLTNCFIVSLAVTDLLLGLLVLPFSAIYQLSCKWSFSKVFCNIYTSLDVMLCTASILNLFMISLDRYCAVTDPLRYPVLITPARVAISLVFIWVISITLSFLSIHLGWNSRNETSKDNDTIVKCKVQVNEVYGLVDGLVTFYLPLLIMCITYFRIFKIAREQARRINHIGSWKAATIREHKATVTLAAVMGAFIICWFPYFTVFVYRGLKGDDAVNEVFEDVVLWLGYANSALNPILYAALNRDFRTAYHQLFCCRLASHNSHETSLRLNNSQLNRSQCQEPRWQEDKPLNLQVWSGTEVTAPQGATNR

As for `C#CCNC(=C[N+](=O)[O-])NCCSCc1[nH]cnc1C` [BL-5949, 1-Nitro-2-(2-propynylamino)-2-{2-[(4-methyl-1H-imidazol-5-yl)methylthio]ethylamino}ethylene], the “Percent Inhibition Acid Output” value in data set [1] (0.0938 μMole/kg iv) stood at 34%; in data set [1] (0.1875 μMole/kg iv), 46%; in data set [1] (0.375 μMole/kg iv) it was 62%; in data set [1] (0.75 μMole/kg iv), 68%; in [3] (2.5 μMole/kg ip), 33%; in [3] (5 μMole/kg ip) it was 51%. Further, the “Percent Inhibition Acid Output” value in data set [3] (20 μMole/kg ip) is 87%. Further, the ED50 (usually the dose at which the effect has come halfway, by size or by number of responders) in [1] (setting [10]) turned out to be 0.24 µmol/kg; in data set [3] (setting [12]) it was 4.62 µmol/kg. Besides, in data set [1] (setting [11]), the “Potency as inhibitor of gastric secretion in dogs (in words)” value was “more potent than either cimetidine or Compound XII”. Also, the “times more potent than Compound XII” value was 3.8 times in data set [1] (relative to Compound XII, iv) and 3.7 times in [3] (relative to Compound XII, ip). Further, the entries for the “Potency Ratio” value in [1] (iv) and in data set [3] (ip) were 5.56 and 2.26, respectively. Also, in data set [2] (setting [11]), the “Potency as histamine H2-receptor antagonist in isolated guinea pig atria (in words)” value is “more potent than either cimetidine or Compound XII”. For the same compound, the “times as active as Compound XII” value in [2] (relative to Compound XII) is “about 2.7 times”. The “Histamine ED50 after test compound” value in data set [2] amounted to 14.05 µg/mL. Besides, in data set [2], the “Concentration-Response Curve Displacement Factor” value worked out at 46.83. The “Potency as inhibitor of gastric secretion in rats (in words)” value in data set [3] (setting [11]) is on record as “more potent than either cimetidine or Compound XII”.
With `CNC(=S)NCCCCc1cnc[nH]1` [Burimamide], in [4] (oral), the oral absorption result is on record as “poor”. The “Inhibition of gastric secretion / oral activity (in words)” value in data set [5] was “inhibits gastric secretion in animals and man”. Also, in data set [6], the “Type of antagonism at histamine H2-receptors (in words)” value is on record as “competitive antagonist of these receptors”.
For `CNC(=NC#N)NCCSCc1[nH]cnc1C` [Cimetidine], the “Efficacy in the treatment of peptic ulcer disease (in words)” value in data set [7] is “effective therapeutic agent in the treatment of peptic ulcer disease”. Also, the “Percent Inhibition Acid Output” value in [1] (0.75 μMole/kg iv) is given as 37%; in [1] (setting [13]) it was 53%; in data set [1] (3.0 μMole/kg iv), 73%; in data set [3] (2.5 μMole/kg ip) it was 9%; in data set [3] (5 μMole/kg ip) it was 53%; in [3] (10 μMole/kg ip), 41%. Also, the “Percent Inhibition Acid Output” value in [3] (20 μMole/kg ip) is recorded as 57%; in data set [3] (40 μMole/kg ip) it was 72%. Besides, the 50% effective dose (ED50) in data set [1] (iv) was 1.33 µmol/kg; in data set [3] (Rattus norvegicus, ip), 10.4 µmol/kg. In addition, the “Histamine ED50 after test compound” value in [2] stood at 4.80 µg/mL. Further, the “Concentration-Response Curve Displacement Factor” value in [2] is reported as 25.26. For the same compound, the half-life result in data set [4] (in vivo) is reported as “relatively short”. In [8], the “H2 antagonist activity (in words)” value is “as effective an H2 antagonist as metiamide”. In addition, the “Toxicity (agranulocytosis)” value in data set [9] is recorded as “without producing agranulocytosis”.
As for `CNC(=C[N+](=O)[O-])NCCSCc1[nH]cnc1C` [Compound XII], the “Percent Inhibition Acid Output” value came to 22% in data set [1] (0.375 μMole/kg iv); 42% in [1] (0.75 μMole/kg iv); 73% in data set [1] (setting [13]); 25% in data set [3] (10 μMole/kg ip); 64% in data set [3] (20 μMole/kg ip); 86% in data set [3] (40 μMole/kg ip). The results for the ED50 in data set [1] (setting [10]) and in [3] (setting [12]) were 0.9 µmol/kg and 17.2 µmol/kg, respectively. The “Potency Ratio” value in [1] (iv) turned out to be 1.47; in data set [3] (ip), 0.61. Also, the “Histamine ED50 after test compound” value in data set [2] was 4.30 µg/mL. Moreover, in data set [2], the “Concentration-Response Curve Displacement Factor” value is 17.92.
`NCCc1c[nH]cn1` [Histamine]: the “Histamine ED50 (control, before test compound)” value in [2] (control of Compound XII series, N=2, contractile rate) stood at 0.24 µg/mL.
Turning to `CNC(=S)NCCSCc1[nH]cnc1C` [Metiamide], the “H2 antagonist activity (in words)” value in [8] is reported as “more potent than burimamide”. For the same compound, in data set [9], the “Toxicity (agranulocytosis)” value was “toxicity (agranulocytosis)”. Also, in [5], the “Inhibition of gastric secretion / oral activity (in words)” value is on record as “orally active in man”.

The values above are taken from patent publication US4200760A, “Imidazolylalkylthioalkylamino-ethylene derivatives” (Bristol-Myers Company, priority 1978, dated 1980).
